# According to PMC4811503, “A method for quantification of exportin-1 (XPO1) occupancy by Selective Inhibitor of Nuclear Export (SINE) compounds” (Oncotarget, 2015):
# Read-outs that look alike come from different tables or passages of the source.
# Assays:
# XPO1 = XPO1 (Homo sapiens, UniProt O14980); experiment: XPO1 occupancy assay in cultured cell lines (biotinylated probe pull-down, Simple Western); assay type: cell-based; design: Cells were collected, washed with PBS, and lysed with RIPA Buffer; endogenous in cells; host or cells: MM.1S; conditions: MM.1S cells
# Chain of XPO1 (O14980 whole entry): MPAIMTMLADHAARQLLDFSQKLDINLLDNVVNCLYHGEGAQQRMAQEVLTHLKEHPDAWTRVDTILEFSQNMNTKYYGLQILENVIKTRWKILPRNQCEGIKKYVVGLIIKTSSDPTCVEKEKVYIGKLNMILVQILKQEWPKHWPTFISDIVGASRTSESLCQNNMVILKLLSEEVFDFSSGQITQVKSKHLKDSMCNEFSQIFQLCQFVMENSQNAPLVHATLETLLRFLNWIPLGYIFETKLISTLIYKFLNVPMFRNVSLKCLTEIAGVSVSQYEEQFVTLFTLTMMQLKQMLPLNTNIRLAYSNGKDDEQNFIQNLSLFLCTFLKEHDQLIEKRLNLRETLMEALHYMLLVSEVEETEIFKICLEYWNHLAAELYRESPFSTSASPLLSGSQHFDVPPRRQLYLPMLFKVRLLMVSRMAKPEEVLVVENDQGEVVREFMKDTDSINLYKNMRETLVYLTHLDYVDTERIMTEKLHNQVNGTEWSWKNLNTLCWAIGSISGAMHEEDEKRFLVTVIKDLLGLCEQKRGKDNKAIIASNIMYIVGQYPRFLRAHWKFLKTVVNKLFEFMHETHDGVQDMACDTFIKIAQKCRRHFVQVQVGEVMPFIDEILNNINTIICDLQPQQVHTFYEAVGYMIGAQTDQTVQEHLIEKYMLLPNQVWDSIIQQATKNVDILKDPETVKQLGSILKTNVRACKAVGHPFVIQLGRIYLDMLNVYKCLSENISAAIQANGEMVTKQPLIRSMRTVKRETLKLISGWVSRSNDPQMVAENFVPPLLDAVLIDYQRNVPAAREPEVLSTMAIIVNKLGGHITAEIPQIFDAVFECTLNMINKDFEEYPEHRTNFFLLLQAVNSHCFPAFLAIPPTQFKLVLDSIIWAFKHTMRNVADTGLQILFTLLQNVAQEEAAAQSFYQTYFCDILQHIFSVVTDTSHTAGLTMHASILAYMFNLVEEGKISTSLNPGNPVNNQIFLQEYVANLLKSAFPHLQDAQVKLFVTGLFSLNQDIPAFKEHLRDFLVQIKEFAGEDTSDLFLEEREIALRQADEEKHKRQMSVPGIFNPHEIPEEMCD
# Protocol: b-LMB was tested for the ability to bind XPO1 protein. First, a dose-response curve was generated by exposing MM.1S cells to increasing concentrations of b-LMB (0 – 500 nM) for 1.5 hours in culture. The cells were then collected, lysed, and a portion of the lysate (input) was reserved prior to incubating the remaining lysate with streptavidin-tagged beads overnight. After extensive washes, b-LMB bound XPO1 was eluted from the beads, and XPO1 from both input and bead eluate was detected and quantified by Simple Western on Peggy Sue. Simple Western allows for the chemiluminescent detection of proteins from small volumes of samples that are run through a matrix-filled capillary. The signal is detected by a CCD camera which generates a digital image and then reports quantitative results. […] The protein signals for XPO1 detected by Simple Western in Figure 2A were reported as mean peak areas and were used to compare levels of XPO1 present in each sample to produce a graphical representation of the ratio of free XPO1 detected at each concentration of b-LMB (Figure 2B). “Ratio of bound XPO1” is defined as the ratio of the mean peak area of b-LMB bound XPO1 detected in the eluate compared to the mean peak area of all XPO1 detected in the input lysate, while “free-fraction” refers to the amount of XPO1 not occupied by SINE compound, as described later.
# The cells were then collected and processed for the XPO1 occupancy assay. […] For these assays, the “ratio of free-fraction XPO1” is calculated by dividing the mean peak areas of XPO1 occupied by b-LMB (from the eluate) by the total amount of XPO1 (from the input).
# Cells were collected, washed with PBS, and lysed with RIPA Buffer (Thermo Scientific) with protease inhibitors [Complete Ultra Tablets, Mini, EDTA-free, Easy pack (Roche), PhosStop Easy (Roche)]. A portion of the lysate was reserved (input) while the rest was added to washed Dynabeads MyOne Streptavidin T1 (Invitrogen) with RIPA Buffer. Samples were incubated overnight with constant rotation at 4°C. Beads were then washed 5 times with modified RIPA (150 mM NaCl, 50 mM Tris, 1% NP-40, 0.1% Na deoxycholate, 1 mM EDTA, pH 7.8). The reserved portion of lysates (input) and the beads were each mixed with Protein Simple buffer (Protein Simple), DTT (Invitrogen), and fluorescent standards (Protein Simple), then boiled at 95°C for 10 min. Eluates and inputs were analyzed using a capillary western method (Peggy Sue; Protein Simple) with the following primary antibodies: XPO1 (Santa Cruz) and β-actin (Santa Cruz). Capillary westerns were performed by SBH Sciences (Natick, MA). Peak areas corresponding to the protein molecular weight of XPO1 and actin were compared for sample inputs, while the ratio of XPO1 peak areas in eluate to input (ratio of bound or free-fraction XPO1) versus compound concentration were used in XLFit model 205 to calculate 50% and 90% occupancy curves.
# [1] = system: nuclear export of the XPO1 cargo protein Rev-GFP in stably transfected U2OS cells; experiment: Rev-GFP assay (nuclear retention of Rev-GFP); assay type: cell-based; conditions: Homo sapiens
# Description: (§1) For this assay we utilized biotinylated LMB (b-LMB) as a tool compound to quantify the amount of XPO1 bound by SINE compounds (Figure 1). b-LMB was synthesized by coupling a biotin tag to LMB. We compared the inhibition of nuclear export and the cytotoxicity of b-LMB to that of the unmodified LMB. […] We then quantified the effects of these compounds on cell death in several cancer cell lines using an MTT cytotoxicity assay (Table 2).
# For the typical Rev-GFP assay, U2OS cells stably expressing Rev-GFP [42] were cultured in 96 well plates at 7,500 - 15,000 cells/well. […] After fixation cells were stained with DAPI (Invitrogen) for 10 minutes at room temperature. Cells were imaged with a Nikon fluorescent microscope at 10X magnification and intensity of the GFP and nuclear area were measured and recorded. Cells were scored as either GFP nuclear positive or negative. Number of positive cells were divided by total number of cells in order to calculate percentage of cells with nuclear GFP per well.
# [2] = MTT assay of unmodified and biotinylated SINE compounds (cell line not given); assay type: cell-based; conditions: for IC50: cell line not named; for fold less cytotoxic compared to unmodified counterpart: ratio of MTT IC50 values
# HCT-116 = experiment: MTT cytotoxicity assay; assay type: cell-based; conditions: Homo sapiens, 72 hours, read-out: IC50
# AML2 = experiment: MTT cytotoxicity assay; assay type: cell-based; conditions: 72 hours, read-out: IC50
# AML3 = experiment: MTT cytotoxicity assay; assay type: cell-based; conditions: 72 hours, read-out: IC50
# MM.1S = experiment: MTT cytotoxicity assay; assay type: cell-based; conditions: Homo sapiens, MM1.S, 72 hours, read-out: IC50
# [3] = system: several cancer cell lines; conditions: human, 72 h
# Protocol: as §1
# Cells were seeded in 96-well flat-bottom culture plates. […] Triplicate wells per concentration were used to calculate IC50 curves. The CellTiter-Fluor Cell Viability Assay (Promega) was performed as instructed by the manufacturer. The whole procedure was repeated three times. The inhibitory rate of cell growth was calculated using the formula: % growth inhibition = (1− OD extract treated)/OD negative control × 100).
# [4] = SINE compound 1 hour, then 1 nM b-LMB […]
# [5] = SINE compound 1 hour, then 1 nM b-LMB […], read-out: Avg 50% Occupancy
# [6] = read-out: Rev-GFP IC50 (μM), U2OS Rev-GFP cells
# [7] = read-out: Rev GFP IC50 (nM), U2OS Rev-GFP cells, unmodified and biotinylated SINE compounds
# [8] = biotinylated SINE compound alone, direct binding
# [9] = biotinylated SINE compound alone, direct binding, read-out: 50% Occupancy
# [10] = 4 h, read-out: Rev-GFP (nM), U2OS cells stably expressing Rev-GFP, 4 hours treatment
smiles,measurement,setting,value
"O=C(/C=C\n1cnc(-c2cc(C(F)(F)F)cc(C(F)(F)F)c2)n1)NNc1ccccn1 [Verdinexor, verdinexor]",Avg 90% Occupancy (μM),XPO1; [4],0.34 +/− 0.08 (n = 3) μM
same,EC50,XPO1; [5],40 nM
same,IC50,[1]; [6],0.01 µM
O=C(/C=C\n1cnc(-c2cc(C(F)(F)F)cc(C(F)(F)F)c2)n1)N1CC(F)(F)C1 [KPT-276],IC50,[2],18 nM
same,IC50,[1]; [7],0.053 µM
COc1cc(-c2ncn(/C=C/C(=O)OC(C)C)n2)cc(C(F)(F)F)c1 [KPT-301],XPO1 binding in the occupancy assay (negative control),"XPO1; 0 – 10 μM, then 1 nM b-LMB, data not shown",no XPO1 bound
O=C1N[C@H]2[C@H](CS[C@H]2CCCCC(=O)Oc2cc(-c3ncn(/C=C\C(=O)N4CC(F)(F)C4)n3)cc(C(F)(F)F)c2)N1 [KPT-9058],90% Occupancy,XPO1; [8],0.69 µM
same,EC50,XPO1; [9],120 nM
same,IC50,[2],110 nM
same,fold less cytotoxic compared to unmodified counterpart,[2],~6 fold
same,IC50,[1]; [7],0.961 µM
NC(=O)/C(=C/n1cnc(-c2cc(C(F)(F)F)cc(C(F)(F)F)c2)n1)c1cncnc1 [KPT-8602],Avg 90% Occupancy (μM),XPO1; [4],1.1 +/− 1.03 (n = 2) μM
same,90% Occupancy,XPO1; followed by 0.1 μM KPT-9511 as probe,0.11 µM
same,IC50,[2],19 nM
same,IC50,[1]; [7],0.042 µM
same,IC50,[1]; [6],0.04 µM
"CCC(=C/[C@H](C)C/C=C/C(C)=C/[C@@H](C)C(=O)[C@@H](C)[C@H](O)[C@@H](C)C/C(C)=C/C(=O)O)/C=C/[C@@H]1OC(=O)C=C[C@@H]1C [LMB, leptomycin B, reference compound]",IC50,HCT-116,0.19 nM
same,IC50,AML2,0.39 nM
same,IC50,AML3,0.68 nM
same,IC50,MM.1S,0.46 nM
same,IC50,[1]; [10],0.00016 µM
NC(=O)/C(=C/n1cnc(-c2cc(OC(=O)CCCC[C@@H]3SC[C@@H]4NC(=O)N[C@@H]43)cc(C(F)(F)F)c2)n1)c1cncnc1 [KPT-9511],90% Occupancy,XPO1; [8],0.61 µM
same,EC50,XPO1; [9],180 nM
same,IC50,[2],280 nM
same,fold less cytotoxic compared to unmodified counterpart,[2],~15 fold
same,IC50,[1]; [7],0.23 µM
"CCC(C=CC1OC(=O)C=CC1C)=CC(C)CC=CC(C)=CC(C)C(=O)C(C)C(O)C(C)CC(C)=CC(=O)NCCCCCCNC(=O)CCCCC1SCC2NC(=O)NC21 (stereo not shown) [b-LMB, reference compound]",IC50,HCT-116,6 nM
same,fold less cytotoxic than unmodified LMB,[3],6 – 30 fold
same,amount of b-LMB necessary to occupy 90% of XPO1,"XPO1; b-LMB […], direct binding, n = 3",2.53 ± 1.72 nM
same,EC50,"XPO1; b-LMB […], direct binding, n = 3, read-out: amount of b-LMB necessary to occupy 50% of XPO1",0.27 nM
same,IC50,AML2,2.53 nM
same,IC50,AML3,4.68 nM
same,IC50,MM.1S,3.1 nM
same,IC50,[1]; [10],0.00011 µM
CC(C)(C)C(=O)NNC(=O)/C=C\n1cnc(-c2cc(C(F)(F)F)cc(C(F)(F)F)c2)n1 [KPT-350],Avg 90% Occupancy (μM),XPO1; [4],6.45 +/− 3.36 (n = 3) μM
same,EC50,XPO1; [5],630 nM
same,IC50,[1]; [6],0.17 µM
